The assay addresses T1, rat MCH1 receptor (Rattus norvegicus, UniProt P97639).
T1 construct: operatively linked to DNA encoding the rat MCH1 receptor so as to permit expression thereof; expressed in transfected cells; host or cells: Human embryonic kidney Peak rapid 293 (Peakr293) cells, transient calcium phosphate transfection, membranes
The assay can be described thus: Radioligand binding assay at cloned rat MCH1 receptor ([3H]Compound A). Conditions: cloned rat MCH1, Peakr293 cell membranes, 0.08 nM [3H]Compound A, 25° C., 90 minutes; read-out: Ki(MCH-1).

T1 sequence (P97639 whole entry): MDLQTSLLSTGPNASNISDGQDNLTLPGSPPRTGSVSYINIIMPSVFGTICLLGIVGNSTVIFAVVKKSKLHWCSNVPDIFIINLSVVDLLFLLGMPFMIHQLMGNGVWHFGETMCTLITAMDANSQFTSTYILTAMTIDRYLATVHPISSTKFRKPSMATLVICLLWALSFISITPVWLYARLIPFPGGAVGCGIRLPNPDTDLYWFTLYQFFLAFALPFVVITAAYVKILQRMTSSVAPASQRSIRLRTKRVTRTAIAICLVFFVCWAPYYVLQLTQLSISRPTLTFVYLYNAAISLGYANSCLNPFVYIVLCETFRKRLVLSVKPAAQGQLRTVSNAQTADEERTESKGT

Consider `CCC(=O)Nc1cccc(C2CCN(CCCNC(=O)C(C)c3ccc(F)cc3)CC2)c1` (stereo not drawn) [Example 64, 2-(4-FLUOROPHENYL)-N-(3-{4-[3-PROPIONYLAMINO)PHENYL]-1-PIPERIDINYL} PROPYL) PROPANAMIDE], for which the Ki (usually the equilibrium dissociation constant of an inhibitor or competing ligand from its target) worked out at 70.7 nM. For `CCCC(=O)Nc1cccc(C2CCN(CCCNC(=O)C3(c4ccc(F)cc4)CCCC3)CC2)c1` [Example 101, N-(3-{4-[3-(BUTYRYLAMINO)PHENYL]-1-PIPERIDINYL}PROPYL)-1-(4-FLUOROPHENYL) CYCLOPENTANECARBOXAMIDE], the Ki came to 11.2 nM. Under `CC(C)C(=O)Nc1cc(C2CCN(CCCNC(=O)C(C)(c3ccccc3)c3ccccc3)CC2)ccc1F` [Example 51] stands 11.8 nM. Regarding `CC(C)C(=O)Nc1cccc(C2CCN(CCCNC(=O)C3(c4ccc(Cl)cc4)CCCC3)CC2)c1` [Example 31, 1-(4-CHLOROPHENYL)-N-(3-{4-[3-(ISOBUTYRYLAMINO)PHENYL]-1-PIPERIDINYL} PROPYL)CYCLOPENTANECARBOXAMIDE], the Ki was 8.2 nM. As for `CCCC(=O)Nc1cccc(C2CCN(CCCNC(=O)C(c3ccc(Cl)cc3)c3ccc(Cl)cc3)CC2)c1` [Example 53, N-{3-[1-(3-{[2,2-BIS(4-CHLOROPHENYL)ACETYL]AMINO}PROPYL)-4-PIPERIDINYL] PHENYL}BUTANAMIDE], the Ki was found to be 1.1 nM. Under `CC(C)C(=O)Nc1c(F)cc(F)c(C2CCN(CCCNC(=O)C(c3ccc(F)cc3)c3ccc(F)cc3)CC2)c1F` [Example 173, N-{3-[1-(3-{[bis(4-fluorophenyl)acetyl]amino}propyl)-4-piperidinyl]-2,4,6-trifluorophenyl}-2-methylpropanamide] stands 2.5 nM; under `CC(C)C(=O)Nc1cncc(C2CCN(CCCNC(=O)C(c3ccc(F)cc3)c3ccc(F)cc3)CC2)c1` [Example 172, N-{5-[1-(3-{[bis(4-fluorophenyl)acetyl]amino}propyl)-4-piperidinyl]-3-pyridinyl}-2-methylpropanamide], 2.5 nM. In the case of `CCCC(=O)Nc1cccc(C2CCN(CCCNC(=O)C3(c4ccc(Cl)cc4)CCCCC3)CC2)c1` [Example 99, N-(3-{4-[3-(BUTYRYLAMINO)PHENYL]-1-PIPERIDINYL}PROPYL)-1-(4-CHLOROPHENYL) CYCLOHEXANECARBOXAMIDE], the Ki is 2.9 nM. Consider `Cc1ccc(NC(=O)C(C)C)cc1C1CCN(CCCNC(=O)[C@@H](C)c2ccc(Cl)cc2)CC1` [Example 166, (2S)-2-(4-chlorophenyl)-N-(3-{4-[5-(isobutyrylamino)-2-methylphenyl]-1-piperidinyl}propyl) propanamide], for which the Ki is 5.7 nM.

With `COC(C(=O)NCCCN1CCC(c2cccc(NC(=O)C(C)C)c2)CC1)c1ccc(Cl)c(Cl)c1` (stereo not drawn) [Example 39], the Ki is 32.2 nM. For the compound `CCCC(=O)Nc1cc(C2CCN(CCCNC(=O)C(c3ccc(C)cc3)c3ccc(C)cc3)CC2)ccc1F` [Example 109], the Ki is 4.7 nM. With `CCCC(=O)Nc1cccc(C2CCN(CCCNC(=O)C(c3ccccc3)c3ccccc3)CC2)c1` [Example 5], the Ki is 3.1 nM.

Turning to `CC[C@@H](C(=O)NCCCN1CCC(c2cc(NC(=O)C(C)C)ccc2C)CC1)c1ccccc1` [Example 162, (2R)-N-(3-{4-[5-(isobutyrylamino)-2-methylphenyl]-1-piperidinyl}propyl)-2-phenylbutan amide], the Ki amounted to 8.6 nM. Under `Cc1ccc(NC(=O)C(C)C)cc1C1CCN(CCCNC(=O)C2(c3ccc(F)cc3Cl)CCCCC2)CC1` [Example 134] stands 2.4 nM; under `CCCCCC(C(=O)NCCCN1CCC(c2cccc(NC(=O)C(C)C)c2)CC1)(c1ccccc1)c1ccccc1` [Example 11], 8.4 nM; under `O=C(Nc1cccc(C2CCN(CCCNC(=O)C3(c4ccc(F)cc4Cl)CCCC3)CC2)c1)C1CC1` [Example 119, 1-(2-CHLORO-4-FLUOROPHENYL)-N-[3-(4-{3-[(CYCLOPROPYLCARBONYL)AMINO] PHENYL}-1-PIPERIDINYL)PROPYL]CYCLOPENTANECARBOXAMIDE], 18.6 nM.

`CC(=O)Nc1cccc(C2CCN(CCCNC(=O)C3(c4ccc(Cl)cc4)CCCC3)CC2)c1` [Example 78, N-(3-{4-[3-(ACETYLAMINO)PHENYL]-1-PIPERIDINYL}PROPYL)-1-(4-CHLOROPHENYL) CYCLOPENTANECARBOXAMIDE]: the Ki was 6.7 nM. Take `CC(C)OC(=O)Nc1cccc(C2CCN(CCCNC(=O)C(c3ccc(Cl)cc3)c3ccc(Cl)cc3)CC2)c1` [Example 143, Isopropyl 3-[1-(3-{[bis(4-chlorophenyl)acetyl]amino}propyl)-4-piperidinyl]phenylcarbamate]: the Ki was found to be 6.2 nM. For the compound `CC(C)C(=O)Nc1cccc(C2CCN(CCCNC(=O)C(C)(c3ccccc3)c3ccccc3)CC2)c1` [Example 30], the Ki was found to be 5.3 nM. `Cc1ccc(NC(=O)C(C)C)cc1C1CCN(CCCNC(=O)C2(c3ccc(F)cc3)CCCCC2)CC1` [Example 92]: the Ki worked out at 2.6 nM.

With `CCC(C(=O)NCCCN1CCC(c2cccc(NC(=O)C(C)C)c2)CC1)(c1ccccc1)c1ccccc1` [Example 12], the Ki stood at 13.9 nM. Under `CCCC(=O)Nc1cccc(C2CCN(CCCNC(=O)C(C)(c3ccccc3)c3ccccc3)CC2)c1` [Example 98, N-[3-(1-{3-[(2,2-DIPHENYLPROPANOYL)AMINO]PROPYL}-4-PIPERIDINYL)PHENYL] BUTANAMIDE] stands 4.3 nM. Under `CC(C)C(=O)Nc1ccc(F)c(C2CCN(CCCNC(=O)C3(c4ccc(F)cc4)CCCCC3)CC2)c1` [Example 131] stands 4 nM.

`CCCC(=O)Nc1cccc(C2CCN(CCCNC(=O)C(c3ccc(F)cc3)c3ccc(F)cc3)CC2)c1` [Example 27, N-{3-[1-(3-{[2,2-BIS(4-FLUOROPHENYL)ACETYL]AMINO}PROPYL)-4-PIPERIDINYL] PHENYL}BUTANAMIDE]: the Ki was 1.1 nM. Under `Cc1ccc(NC(=O)C(C)C)cc1C1CCN(CCCNC(=O)C2(c3ccc(Cl)cc3)CC2)CC1` [Example 89] stands 10.8 nM; under `CC(C)C(=O)Nc1cncc(C2CCN(CCCNC(=O)C(c3ccccc3)c3ccccc3)CC2)c1` [Example 170, N-[5-(1-{3-[(diphenylacetyl)amino]propyl}-4-piperidinyl)-3-pyridinyl]-2-methyl propanamide], 19.1 nM; under `CC(=O)Nc1cccc(C2CCN(CCCNC(=O)C(C)c3ccc(Cl)cc3)CC2)c1` (stereo not drawn) [Example 95, N-(3-{4-[3-(ACETYLAMINO)PHENYL]-1-PIPERIDINYL}PROPYL)-2-(4-CHLOROPHENYL) PROPANAMIDE], 23.5 nM. Under `CC(C)C(=O)Nc1cccc(C2CCN(CCCNC(=O)C3(c4ccc(F)cc4Cl)CCCC3)CC2)c1` [Example 38] stands 28.4 nM. Under `CC(=O)Nc1cccc(C2CCN(CCCNC(=O)C3(c4ccc(Cl)cc4)CCC3)CC2)c1` [Example 74, N-(3-{4-[3-(ACETYLAMINO)PHENYL]-1-PIPERIDINYL}PROPYL)-1-(4-CHLOROPHENYL) CYCLOBUTANECARBOXAMIDE] stands 34.3 nM; under `O=C(Nc1cccc(C2CCN(CCCNC(=O)C3(c4ccc(F)cc4)CCCC3)CC2)c1)C1CC1` [Example 121, N-[3-(4-{3-[(CYCLOPROPYLCARBONYL)AMINO]PHENYL}-1-PIPERIDINYL) PROPYL]-1-(4-FLUOROPHENYL)CYCLOPENTANECARBOXAMIDE], 10.2 nM; under `CCCC(=O)Nc1cccc(C2CCN(CCCNC(=O)C3(c4ccc(F)cc4)CCCCC3)CC2)c1` [Example 87, N-(3-{4-[3-(BUTYRYLAMINO)PHENYL]-1-PIPERIDINYL}PROPYL)-1-(4-FLUOROPHENYL) CYCLOHEXANECARBOXAMIDE], 6.4 nM.

With `CC(C)C(=O)Nc1cccc(C2CCN(CCCNC(=O)C(Br)c3ccccc3)CC2)c1` (stereo not drawn) [Example 9, N-{3-[1-(3-{[BROMO(PHENYL)ACETYL]AMINO}PROPYL)-4-PIPERIDINYL] PHENYL}-2-METHYLPROPANAMIDE], the Ki was found to be 71.6 nM.

Turning to `CC(C)C(=O)Nc1cccc(C2CCN(CCCNC(=O)C(c3ccccc3)(c3ccccc3)c3ccccc3)CC2)c1` [Example 59], the Ki was 4.3 nM. Under `Cc1ccc(NC(=O)C(C)C)cc1C1CCN(CCCNC(=O)C(O)c2ccc(F)c(F)c2)CC1` (stereo not drawn) [Example 153, N-{3-[1-(3-{[(3,4-difluorophenyl)(hydroxy)acetyl]amino}propyl)-4-piperdinyl]-4-methylphenyl}-2-methylpropanamide] stands 20.3 nM; under `CC(C)C(=O)Nc1ccc(F)c(C2CCN(CCCNC(=O)C3(c4ccc(F)cc4Cl)CCCC3)CC2)c1` [Example 137, 1-(2-CHLORO-4-FLUOROPHENYL)-N-(3-{4-[2-FLUORO-5-(ISOBUTYRYLAMINO) PHENYL]-1-PIPERIDINYL}PROPYL)CYCLOPENTANECARBOXAMIDE], 11.8 nM. Under `CCCC(=O)Nc1ccc(OC)c(C2CCN(CCCNC(=O)C(c3ccc(F)cc3)c3ccc(F)cc3)CC2)c1` [Example 26] stands 18.7 nM.

`CC(C)(C)CC(=O)Nc1cccc(C2CCN(CCCNC(=O)C(c3ccccc3)c3ccccc3)CC2)c1` [Example 19]: the inhibitory constant (Ki) came to 23.4 nM. In the case of `CC(C)C(=O)Nc1ccc(F)c(C2CCN(CCCNC(=O)C(c3ccc(Cl)cc3)c3ccc(Cl)cc3)CC2)c1` [Example 54], the Ki is 2.2 nM. With `CCC(=O)Nc1cccc(C2CCN(CCCNC(=O)C(CC)(c3ccccc3)c3ccccc3)CC2)c1` [Example 15, 2,2-DIPHENYL-N-(3-{4-[3-(PROPIONYLAMINO)PHENYL]-1-PIPERIDINYL}PROPYL) BUTANAMIDE], the Ki worked out at 8.9 nM.

Turning to `Cc1c(NC(=O)C(C)C)cccc1C1CCN(CCCNC(=O)C(c2ccccc2)c2ccccc2)CC1` [Example 33], the Ki is 496 nM. Consider `O=C(Nc1cccc(C2CCN(CCCNC(=O)C(c3ccccc3)c3ccccc3)CC2)c1)OCc1ccccc1` [Example 140, Benzyl 3-(1-{3-[(Diphenylacetyl)Amino]Propyl}-4-Piperidinyl)Phenylcarbamate], for which the Ki amounted to 180 nM. Turning to `CC(C)C(=O)Nc1c(F)cc(F)c(C2CCN(CCCNC(=O)C(c3ccccc3)c3ccccc3)CC2)c1F` [Example 171, N-[3-(1-{3-[(diphenylacetyl)amino]propyl}-4-piperidinyl)-2,4,6-trifluorophenyl]-2-methylpropanamide], the Ki stood at 9.1 nM.

The record behind these values is patent publication US20060217418A1, “Substituted alkyl amido piperidines” (priority 2001, published 2006).
